The text below walks through data of the supplement of paper PMC11451515.

Holding throughout (assay): AUC of viability dose-response curve (% viability x log10 dose units); higher = less sensitive
What all share (settings): 48 h

In one test the test system is SEM cells. The method in brief:
(§1)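 Leukemia cells adapted to each medium were seeded at 500 or 1000 cells/well in 1536-well plates and dosed with library compounds in DMSO at 11 threefold doses from 47 μM to 0.79 nM for 48 h at 37°C. CellTiter-Glo One luminescence was normalised per plate to DMSO and cell-free wells, then fitted with a four-parameter log-logistic model over log10 doses. Area under the curve was taken from this fit by the trapezoidal rule, with curves above full viability scaled and curves failing quality control removed.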

The next test deals with NOMO1. The method in brief:
as §1

A further test deals with P12-Ichikawa. The method in brief: as §1
[1] abbreviates: RPMI 5 mM glucose + 10% dialyzed FBS.

Regarding `C[C@H](NC(=O)/C(C#N)=C/c1cccc(Br)n1)c1ccccc1`, the “AUC of viability dose-response curve” value is 336 in the test with SEM cells (HPLM + 10% dialyzed FBS); 316 in the test with SEM cells (RPMI 5 mM glucose + 10% FBS); 336 in the test with SEM cells (setting [1]); 348 in the test on NOMO1 (HPLM + 10% dialyzed FBS); 361 with NOMO1 (RPMI 5 mM glucose + 10% FBS); 371 in the test on NOMO1 (setting [1]). The “AUC of viability dose-response curve” value worked out at 336 in the test on P12-Ichikawa (HPLM + 10% dialyzed FBS), 353 in the test on P12-Ichikawa (RPMI 5 mM glucose + 10% FBS) and 351 in the test with P12-Ichikawa (setting [1]).
On to `N=C(CCSCc1csc(N=C(N)N)n1)N[S+](N)(=O)[O-]`, for which the “AUC of viability dose-response curve” value with SEM cells (HPLM + 10% dialyzed FBS) was 452; with SEM cells (RPMI 5 mM glucose + 10% FBS), 458; in the test with SEM cells (setting [1]) it was 421; with NOMO1 (HPLM + 10% dialyzed FBS), 459; in the test with NOMO1 (RPMI 5 mM glucose + 10% FBS) it was 439; in the test with NOMO1 (setting [1]), 461. Also, the “AUC of viability dose-response curve” value with P12-Ichikawa (HPLM + 10% dialyzed FBS) worked out at 467; in the test with P12-Ichikawa (RPMI 5 mM glucose + 10% FBS), 454; in the test on P12-Ichikawa (setting [1]), 432.
In the case of `CC(C)NCC(O)COc1ccc(COCCOC(C)C)cc1` (stereo not given), the “AUC of viability dose-response curve” value was 468 in the test on SEM cells (HPLM + 10% dialyzed FBS); 474 in the test on SEM cells (RPMI 5 mM glucose + 10% FBS); 469 in the test on SEM cells (setting [1]); 458 with NOMO1 (HPLM + 10% dialyzed FBS); 461 with NOMO1 (RPMI 5 mM glucose + 10% FBS); 459 with NOMO1 (setting [1]). Moreover, the “AUC of viability dose-response curve” value in the test on P12-Ichikawa (HPLM + 10% dialyzed FBS) stood at 457; with P12-Ichikawa (RPMI 5 mM glucose + 10% FBS) it was 463; with P12-Ichikawa (setting [1]), 463.
`C[C@H](O)[C@H]1[C@@H]2[C@H](C)C(=C(\N2C1=O)C(O)=O)/S[C@@H]3CN[C@H](CN[S+](N)([O-])=O)C3`: the “AUC of viability dose-response curve” value with SEM cells (HPLM + 10% dialyzed FBS) was found to be 443; with SEM cells (RPMI 5 mM glucose + 10% FBS), 453; in the test on SEM cells (setting [1]) it was 420; in the test with NOMO1 (HPLM + 10% dialyzed FBS), 439; in the test with NOMO1 (RPMI 5 mM glucose + 10% FBS) it was 443; with NOMO1 (setting [1]) it was 452. Also, the figures for the “AUC of viability dose-response curve” value in the test on P12-Ichikawa (HPLM + 10% dialyzed FBS), in the test on P12-Ichikawa (RPMI 5 mM glucose + 10% FBS) and in the test with P12-Ichikawa (setting [1]) were 465, 455 and 447, respectively.
On to `Cc1cc(OCCCc2c(C(=O)O)n(Cc3cccnc3)c3c(-c4c(COc5ccc(N6CCN([S+](C)(=O)[O-])CC6)cc5)nn(C)c4C)cccc23)cc(C)c1Cl`, for which the “AUC of viability dose-response curve” value in the test with SEM cells (HPLM + 10% dialyzed FBS) stood at 441; in the test with SEM cells (RPMI 5 mM glucose + 10% FBS) it was 441; in the test on SEM cells (setting [1]), 439; with NOMO1 (HPLM + 10% dialyzed FBS) it was 452; in the test on NOMO1 (RPMI 5 mM glucose + 10% FBS), 418; with NOMO1 (setting [1]), 443. Further, the “AUC of viability dose-response curve” value with P12-Ichikawa (HPLM + 10% dialyzed FBS) stood at 452; with P12-Ichikawa (RPMI 5 mM glucose + 10% FBS), 441; in the test with P12-Ichikawa (setting [1]), 446.
